US20090304821A1, “Pharmaceutical Combination” (Takeda Pharmaceutical Company Limited, priority 2006, published 2009)

biological target: T1, human CaR (Homo sapiens, UniProt P41180); test: GTPγS binding assay on human CaR-expressing CHO cell membrane; type: biochemical; settings: 1 μM test compound, % of binding with 6 mM calcium only, compounds marked antagonist
T1 construct: expressed in transfected cells; cDNA amplified from human kidney cDNA (TOYOBO); membrane fraction used
T1 sequence (P41180 20-1078): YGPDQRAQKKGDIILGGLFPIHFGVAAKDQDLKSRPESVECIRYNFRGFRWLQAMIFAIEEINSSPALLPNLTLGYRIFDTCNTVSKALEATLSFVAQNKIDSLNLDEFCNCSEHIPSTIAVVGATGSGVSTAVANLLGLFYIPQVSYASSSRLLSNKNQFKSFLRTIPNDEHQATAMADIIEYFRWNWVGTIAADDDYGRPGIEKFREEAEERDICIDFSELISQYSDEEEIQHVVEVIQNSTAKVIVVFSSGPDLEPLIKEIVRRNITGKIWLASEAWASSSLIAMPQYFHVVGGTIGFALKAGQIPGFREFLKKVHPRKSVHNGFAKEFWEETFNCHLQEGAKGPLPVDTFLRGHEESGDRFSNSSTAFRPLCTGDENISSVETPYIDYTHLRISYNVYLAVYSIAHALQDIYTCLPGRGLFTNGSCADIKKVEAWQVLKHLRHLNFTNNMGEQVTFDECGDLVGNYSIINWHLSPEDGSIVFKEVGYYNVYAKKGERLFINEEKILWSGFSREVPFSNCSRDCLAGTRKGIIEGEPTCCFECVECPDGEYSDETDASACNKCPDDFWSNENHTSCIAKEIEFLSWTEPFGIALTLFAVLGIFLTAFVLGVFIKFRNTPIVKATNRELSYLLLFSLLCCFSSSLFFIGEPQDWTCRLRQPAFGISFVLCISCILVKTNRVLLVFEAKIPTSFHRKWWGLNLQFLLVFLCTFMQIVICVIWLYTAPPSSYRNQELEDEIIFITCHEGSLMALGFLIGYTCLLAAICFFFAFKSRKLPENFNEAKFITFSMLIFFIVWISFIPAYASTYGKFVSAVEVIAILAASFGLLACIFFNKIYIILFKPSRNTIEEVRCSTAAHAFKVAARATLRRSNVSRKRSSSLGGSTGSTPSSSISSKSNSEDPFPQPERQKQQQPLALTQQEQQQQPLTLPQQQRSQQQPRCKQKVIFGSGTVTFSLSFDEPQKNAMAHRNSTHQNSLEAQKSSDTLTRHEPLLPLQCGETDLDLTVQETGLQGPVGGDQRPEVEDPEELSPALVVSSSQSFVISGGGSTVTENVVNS
Procedure: Preparation of Membrane Fraction is Described Bellow. The human CaR-expressing CHO cells were inoculated to a F500 flask in 1.8×10^5 cells/flask followed by cultivation for 2 days. The cells were scraped with 10 ml of Phosphate-Buffered Saline containing 0.02% EDTA. After centrifugation (2000 rpm, 10 min) of the cells, the cell pellet was resuspended into 12 ml of homogenate buffer solution (10 mM NaHCO3, 1 mM EDTA, 1× Protease inhibitor cocktail (pH 7.4)) and homogenized by Polytron™ (2000 rpm, 1 min). The cell debris was removed by centrifugation (2000 rpm, 10 min), and then the CaR-expressing cell membrane fraction was collected by ultracentrifugation (Beckman 70 Ti type rotor, 30000 rpm, 1 hour).
The GTPγS binding activity was measured as follows. Twenty μg of the CaR-expressing cell membrane was incubated with test compounds for 10 min. The assays were carried out at room temperature for an hour in a reaction mixture solution containing 20 mM HEPES (pH.7.4), 100 mM NaCl, 1 mM MgCl2, 167 μg/ml DTT, 5 μM guanosine 5′-diphosphate, 0.4 nM [^35S]-guanosine 5′-(γ-thio) triphosphate ([^35S]-GTPγS) and 6 mM CaCl2. The reaction mixture was filtered through a GF/C filter. After washing four times with 300 μl of Phosphate-Buffered Saline, the amount of [^35S]-GTPγS bound to the filter was measured using a Top-count scintillation counter.
Effects of test compounds on [^35S]-GTPγS binding were expressed in percentage terms. This was calculated from the equation [100×(t′−b)]/(t−b)]. Herein, t′, t and b are values of [^35S]-GTPγS binding (dpm), t′ is a value in the presence of 6 mM calcium and the test compound, t is a value in the presence of 6 mM calcium only and b is a value in the absence of both 6 mM calcium and the test compound.

Compound | [^35S]-GTPγS binding (%)
COc1ccc(C(NC(=O)c2cnn3c2NC(c2ccccc2)CC3C)c2ccc(OC)cc2)cc1 (stereo not shown) [Test Compound 2, N-(bis(4-methoxyphenyl)methyl)-7-methyl-5-phenyl-4,5,6,7-tetrahydropyrazolo[1,5-a]pyrimidine-3-carboxamide] | 0 (1 μM) %
Cc1ccc(C(OC2CCN(C(=O)c3cnn4c3NC(c3ccccc3)CC4C(F)(F)F)CC2)c2ccc(C)cc2)cc1 (stereo not shown) [Test Compound 4, 3-((4-(bis(4-methylphenyl)methoxy)-1-piperidinyl)carbonyl)-5-phenyl-7-(trifluoromethyl)-4,5,6,7-tetrahydropyrazolo[1,5-a]pyrimidine] | 10 (1 μM) %
CC1(C(F)(F)F)CC(c2ccccc2)Nc2c(C(=O)NC34CC5CC(CC(C5)C3)C4)cnn21 (stereo not shown) [Test Compound 5, N-(1-adamantyl)-7-methyl-5-phenyl-7-(trifluoromethyl)-4,5,6,7-tetrahydropyrazolo[1,5-a]pyrimidine-3-carboxamide] | 12 (1 μM) %
CCC(CC)(NC(=O)c1cnn2c1NC(c1ccccc1)CC2(C)C)c1ccc(-c2ccsc2)cc1 (stereo not shown) [Test Compound 6, N-(1-ethyl-1-(4-(3-thienyl)phenyl)propyl)-7,7-dimethyl-5-phenyl-4,5,6,7-tetrahydropyrazolo[1,5-a]pyrimidine-3-carboxamide] | 0 (1 μM) %

The next lines start with the values.

[^35S]-GTPγS binding (%) | Compound
34 (1 μM) % | COc1ccc(C(CNC(=O)c2cnn3c2NC(c2ccccc2)CC3C(F)(F)F)c2ccccc2)cc1 (stereo not shown) [Test Compound 1, N-(2-(4-methoxyphenyl)-2-phenylethyl)-5-phenyl-7-(trifluoromethyl)-4,5,6,7-tetrahydropyrazolo[1,5-a]pyrimidine-3-carboxamide]
0 (1 μM) % | CCC(CC)(NC(=O)c1cnn2c1NC(c1ccccc1)CC2C(F)(F)F)c1ccc(C(F)(F)F)cc1 (stereo not shown) [Test Compound 3, N-(1-ethyl-1-(4-(trifluoromethyl)phenyl)propyl)-5-phenyl-7-(trifluoromethyl)-4,5,6,7-tetrahydropyrazolo[1,5-a]pyrimidine-3-carboxamide]

same assay, conditions: 10 μM test compound, % of binding with 6 mM calcium only, compound marked agonist

[^35S]-GTPγS binding (%) | Compound
256 (10 μM) % | O=C(NCC(c1ccccc1)N1CCCC1)c1cnn2c1NC(c1ccccc1)CC2C(F)(F)F (stereo not shown) [Test Compound 7, 5-phenyl-N-(2-phenyl-2-(1-pyrrolidinyl)ethyl)-7-(trifluoromethyl)-4,5,6,7-tetrahydropyrazolo[1,5-a]pyrimidine-3-carboxamide]
